d = 2'-deoxy (DNA); r = 2'-OH (RNA)
Tested on: HXB2 HIV
Assay: Rescue of 3′UTR siRNA-mediated inhibition of HIV replication by non-targeted cDNA, β-galactosidase readout
Format: cell-based
Settings: LIG3 cDNA lacking the 3′UTR; FIG. 7

For “CAUACUCUCCUUUACCAUAdTdT (CAUACUCUCCUUUACCAUATT; siRNA; sugars from the 5' end r19 d2, backbone not given here) [LIG3 siRNA #8, siRNA targeting the 3′UTR of LIG3]”, the “p, difference between siRNA+vector-transfected and siRNA+cDNA transfected” value was < 0.05.
